Data as given in patent US10829520B2, “Beta-hairpin peptidomimetics” (POLYPHOR AG, priority 2015, dated 2020).
Where a SMILES comes first, the peptide text is derived from it. Bridges are numbered along the chain shown (N, C = ends). [ ]: non-standard residue; d: D form. Tle = CC(C)(C)[C@H](N)C(=O)O; dDab = NCC[C@@H](N)C(=O)O; Nle = CCCC[C@H](N)C(=O)O; Orn = NCCC[C@H](N)C(=O)O; Dab = NCC[C@H](N)C(=O)O; Dap = NC[C@H](N)C(=O)O; Sar = CNCC(=O)O

Assays:
Format in all cases: cell-based
[1] = test system: Pseudomonas aeruginosa ATCC 27853; conditions: ATCC 27853
Procedure, shortened: (§1)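 Antibacterial activity is measured as MIC (μg/mL) by standard CLSI microdilution. Inocula of about 10^6 CFU/mL in MH-II broth meet two-fold peptide dilutions in medium with 0.002% Polysorbate 80, and growth is scored visually after 18-20 hours at 35° C.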

[2] = test system: Acinetobacter baumannii DSM 30008; conditions: DSM 30008
Procedure, shortened: as §1

Escherichia coli 926415 = conditions: 926415
[3] = test system: Acinetobacter baumannii 872842; conditions: 872842
[4] = test system: Klebsiella pneumoniae 968733; conditions: 968733
[5] = test system: Klebsiella pneumoniae SSI #3010; conditions: SSI #3010
Procedure, shortened: as §1

[6] = test system: Escherichia coli ATCC 25922; conditions: ATCC 25922
Procedure, shortened: as §1

[7] = test system: human red blood cells (hRBC); test: Hemolysis of human red blood cells; conditions: red cells of human, 1 h, 100 μg/mL
Procedure, shortened: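 Percent hemolysis = OD540 of peptide-treated supernatant relative to the 2.5% Triton X-100 (100%) control, PBS containing 0.001% acetic acid defining 0%. Peptides tested at 100 μg/mL against 20% (v/v) washed human RBC, 1 h, 37 °C, 300 rpm.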

Compound: CC(C)C[C@@H]1NC(=O)[C@H]([C@@H](C)O)NC(=O)[C@H]2CCCN2C(=O)[C@H](CO)NC(=O)[C@H](C)NC(=O)[C@H](C(C)C)NC(=O)[C@@H](NC(=O)[C@@H](N)Cc2c[nH]c3ccccc23)CSSC[C@@H](C(=O)NCC(=O)N[C@@H](CCN)C(=O)N[C@H](C(=O)N[C@@H](CCN)C(=O)N[C@H]2CCNC(=O)[C@H]([C@@H](C)O)NC(=O)[C@H](CCN)NC(=O)[C@H](CCN)NC(=O)[C@H](CC(C)C)NC(=O)[C@@H](CC(C)C)NC(=O)[C@H](CCN)NC2=O)[C@@H](C)O)NC(=O)[C@H](Cc2ccc(O)cc2)NC(=O)[C@H](CO)NC1=O [Ex. 126] (H-WCVAS[dP]TLSYCG[Dab]T[Dab][Dab][Dab][dL]L[Dab][Dab]T; disulfide 2-11; lactam 16-C)
- Pseudomonas aeruginosa ATCC 27853 MIC [1]: 0.5 µg/mL
- Acinetobacter baumannii DSM 30008 MIC [2]: 0.0625 µg/mL
- Escherichia coli 926415 MIC (Escherichia coli 926415): 0.5 µg/mL
- Acinetobacter baumannii 872842 MIC [3]: 0.125 µg/mL
- Klebsiella pneumoniae 968733 MIC [4]: 0.5 µg/mL
- Klebsiella pneumoniae SSI #3010 MIC [5]: 0.0625 µg/mL
- Escherichia coli ATCC 25922 MIC [6]: 0.0625 µg/mL
- Hemolysis at 100 μg/mL [7]: 1%

Compound: CC(C)C[C@@H]1NC(=O)[C@@H](CC(C)C)NC(=O)[C@H](CCN)NC(=O)[C@@H](NC(=O)[C@H](CCN)NC(=O)[C@@H](CCN)NC(=O)[C@@H](NC(=O)[C@H](CCCN)NC(=O)[C@@H]2CSSC[C@H](NC(=O)[C@@H](N)Cc3c[nH]c4ccccc34)C(=O)N[C@@H](C(C)C)C(=O)N[C@@H](CO)C(=O)N[C@@H](CO)C(=O)N3CCC[C@@H]3C(=O)N[C@@H](Cc3ccc(O)cc3)C(=O)N[C@@H](C(C)C)C(=O)N[C@@H](CN)C(=O)N[C@@H](Cc3ccc(O)cc3)C(=O)N2)[C@@H](C)O)CCNC(=O)[C@H]([C@@H](C)O)NC(=O)[C@H](CCN)NC(=O)[C@H](CCN)NC1=O [Ex. 149] (H-WCVSS[dP]YV[Dap]YC[Orn]T[dDab][Dab][Dab][Dab][dL]L[Dab][Dab]T; disulfide 2-11; lactam 16-C)
- Pseudomonas aeruginosa ATCC 27853 MIC [1]: 0.5 µg/mL
- Acinetobacter baumannii DSM 30008 MIC [2]: 0.5 µg/mL
- Escherichia coli 926415 MIC (Escherichia coli 926415): 0.125 µg/mL
- Acinetobacter baumannii 872842 MIC [3]: 0.0625 µg/mL
- Klebsiella pneumoniae 968733 MIC [4]: 0.5 µg/mL
- Klebsiella pneumoniae SSI #3010 MIC [5]: 0.25 µg/mL
- Escherichia coli ATCC 25922 MIC [6]: 0.5 µg/mL
- Hemolysis at 100 μg/mL [7]: <1%

Compound: CNCC(=O)N[C@@H](CC(C)C)C(=O)N[C@H]1CSSC[C@@H](C(=O)N(C)CC(=O)N[C@@H](CCN)C(=O)N[C@H](C(=O)N[C@@H](CCN)C(=O)N[C@H]2CCNC(=O)[C@H]([C@@H](C)O)NC(=O)[C@H](CCN)NC(=O)[C@H](CCN)NC(=O)[C@H](CC(C)C)NC(=O)[C@@H](CC(C)C)NC(=O)[C@H](CCN)NC2=O)[C@@H](C)O)NC(=O)[C@H](Cc2ccc(O)cc2)NC(=O)[C@H](CO)NC(=O)[C@H](CC(C)C)NC(=O)[C@@H]2CCCN2C(=O)[C@H]2CCCN2C(=O)[C@H](Cc2ccc(O)cc2)NC(=O)[C@H](C)NC(=O)[C@H](C(C)C)NC1=O [Ex. 186] (H-[Sar]LCVAY[dP]PLSYC[Sar][Dab]T[Dab][Dab][Dab][dL]L[Dab][Dab]T; disulfide 3-12; lactam 17-C)
- Pseudomonas aeruginosa ATCC 27853 MIC [1]: 0.25 µg/mL
- Acinetobacter baumannii DSM 30008 MIC [2]: 0.1251 µg/mL
- Escherichia coli 926415 MIC (Escherichia coli 926415): 0.25 µg/mL
- Acinetobacter baumannii 872842 MIC [3]: 0.0625 µg/mL
- Klebsiella pneumoniae 968733 MIC [4]: 0.5 µg/mL
- Klebsiella pneumoniae SSI #3010 MIC [5]: 0.125 µg/mL
- Escherichia coli ATCC 25922 MIC [6]: 0.125 µg/mL
- Hemolysis at 100 μg/mL [7]: <1%

Compound: CCCC[C@@H]1NC(=O)[C@@H]2CCCN2C(=O)[C@H]2CCCN2C(=O)[C@H](CO)NC(=O)[C@H](C)NC(=O)[C@H](C(C)(C)C)NC(=O)[C@H](CCN)NC(=O)[C@H](Cc2c[nH]c3ccccc23)NC(=O)[C@@H](NC(C)=O)CSSC[C@@H](C(=O)N[C@@H](CCN)C(=O)N[C@H](C(=O)N[C@@H](CCN)C(=O)N[C@H]2CCNC(=O)[C@H]([C@@H](C)O)NC(=O)[C@H](CCN)NC(=O)[C@H](CCN)NC(=O)[C@H](CC(C)C)NC(=O)[C@@H](Cc3ccccc3)NC(=O)[C@H](CCN)NC2=O)[C@@H](C)O)NC(=O)[C@H](CCCN)NC(=O)[C@H](CCN)NC(=O)[C@H](Cc2ccc(O)cc2)NC(=O)[C@H](CO)NC1=O [Ex. 62] (Ac-CW[Dab][Tle]AS[dP]P[Nle]SY[Dab][Orn]C[Dab]T[Dab][Dab][Dab][dF]L[Dab][Dab]T; disulfide 1-14; lactam 18-C)
- Pseudomonas aeruginosa ATCC 27853 MIC [1]: 0.5 µg/mL
- Acinetobacter baumannii DSM 30008 MIC [2]: 0.5 µg/mL
- Escherichia coli 926415 MIC (Escherichia coli 926415): 1 µg/mL
- Acinetobacter baumannii 872842 MIC [3]: 0.5 µg/mL
- Klebsiella pneumoniae 968733 MIC [4]: 8 µg/mL
- Klebsiella pneumoniae SSI #3010 MIC [5]: 0.5 µg/mL
- Escherichia coli ATCC 25922 MIC [6]: 0.25 µg/mL
- Hemolysis at 100 μg/mL [7]: 1%
